“And” between values parts separate entries of the source, which are not always exact repeats. Equal entries are not always repeated.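 Growth conditions: 96-well plates. Treatment: test compound, 48 hours, 5 concentrations. Analysis: linear interpolation between bracketing concentrations; unreached endpoints set to highest concentration. GI50 marks 50% less growth. TGI: total growth inhibition.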
Test system: M19-MEL melanoma
Assay: inhibition of tumour cell growth, NCI panel, 48 h

SMILES | TGI [µM]
O=[N+]([O-])c1cccc(/C=N\NS(=O)(=O)c2ccc(Cl)cc2)c1O | > 100
CC1=C(C(=O)Nc2ccccc2C)C(c2ccc(Cl)c(Cl)c2)C(C(=O)Nc2ccccc2C)=C(C)N1 | 45.2
CCCCOC(=O)NC(=O)c1cn(CCCOC(=O)CCCCCCCCC(=O)OCCCn2cc(C(=O)NC(=O)OCCCC)c(=O)[nH]c2=O)c(=O)[nH]c1=O | > 100
Cc1[nH]c2ccccc2c1C1Cc2ccccc2N1C(=O)/C=C\C(=O)O (configuration not stated) | > 100
CCOC(=O)Nc1nc2ccc(Cn3cccc3)cc2[nH]1 | > 100

Test system: SNB-78 CNS
Assay: inhibition of tumour cell growth, NCI panel, 48 h

SMILES | TGI | GI50
c1ccc2c(c1)CCC/C2=N\OCC1CO1 (configuration not stated) | > 100 µM | 
CC/C(C)=C1\CCC(CN2CCOCC2)C1=O (configuration not stated) | 50.5 µM | 
CCN(CC)CC(O)CNc1ccc(NCC2CO2)c2c1C(=O)c1ccccc1C2=O (configuration not stated) | 2.6 µM | 
CC(=O)c1cccc(N2COC(C)(C)c3nc4ccccc4n3C2)c1 | > 100 µM | 
O=[N+]([O-])c1cccc(C2N3CCCCC3[C@@H]3c4[nH]c5ccccc5c4CCN23)c1 (some centres not stated) | 26.1 µM | 
Cc1c[nH]c2c(O)cc3c(c12)[C@H](CCl)CN3C(=O)c1cc2cc(NC(=O)Nc3ccc4[nH]c(C(=O)N5C[C@@H](CCl)c6c5cc(O)c5[nH]cc(C)c65)cc4c3)ccc2[nH]1 | 1.59 µM and 0.00887 µg/mL and 6.72 µg/mL | 0.000887 ng/mL and 2.73 ng/mL
CCOC(=O)NC(=O)c1cn(CC(=O)NCC(=O)NCC(=O)NCCCN2CCN(CCCNC(=O)CNC(=O)CNC(=O)Cn3cc(C(=O)NC(=O)OCC)c(=O)[nH]c3=O)CC2)c(=O)[nH]c1=O | > 100 µM | 
CCN(CC)CCCC(C)Nc1c2ccc(Cl)cc2nc2ccc(OC)cc12 (configuration not stated) | 11.5 µM | 
O=S(=O)(N/N=C/c1ccc(/C=N/NS(=O)(=O)c2ccccc2)cc1)c1ccccc1 | > 100 µM | 
CCOC(=O)C(N)C[S][Sn]([CH3])([CH3])[Cl] (configuration not stated) | > 100 µM | > 94.3 µM
NNC(=O)/C(=C/c1ccc(Cl)c(Cl)c1)NC(=O)c1ccccc1 | > 100 µM | 
CC(=O)OCC1OC(N2C(=O)C(=O)c3cc(C)ccc32)C(OC(C)=O)C(OC(C)=O)C1OC(C)=O (configuration not stated) | > 100 µM | 
O=C1c2ccccc2-c2cccc3ccc(Cc4ccc5ccccc5c4)c1c23 | > 100 µM | 
COc1cc(Cl)c2c3c(c(C(C)=O)oc13)CCC2 | > 100 µM | 
CCCCc1c2c(nc3c1CCC/C3=C\c1ccccc1)C(=O)CCC2 | 52.5 µM | 
COc1ccc([N+]2=NC(c3ccc([N+](=O)[O-])cc3)=NN(c3ccccc3)C2)cc1 | > 100 µM | 
C=CC1(C(=O)O)CCC(C(C)(C)C)CC1 (configuration not stated) | > 100 µM | 
NC(=O)C(=Cc1ccc(C(O)P(=O)(O)O)cc1)C(N)=O (configuration not stated) | > 100 µM | 
O=C(Nc1cc(Cl)c(Cl)cc1Cl)C(=O)C1C=CCS1(=O)=O (configuration not stated) | > 100 µM | 
CCNC(=O)CCN(C(=O)O)S(=O)(=O)c1ccc(NC(=O)c2ccccc2)cc1 | > 100 µM | 
O=C(/C=C/c1ccc([N+](=O)[O-])o1)N1CCN(Cc2ccccc2)CC1 | 54.5 µM | 
CC1C[C@@]2(c3ccccc3)C(=O)CCC[C@H]2N1 (some centres not stated) | > 100 µM | 
O=[N+]([O-])c1cccc(/C=N\NS(=O)(=O)c2ccc(Cl)cc2)c1O | > 100 µM | 
CC1=C(C(=O)Nc2ccccc2C)C(c2ccc(Cl)c(Cl)c2)C(C(=O)Nc2ccccc2C)=C(C)N1 | > 100 µM | 
Cc1[nH]c2ccccc2c1C1Cc2ccccc2N1C(=O)/C=C\C(=O)O (configuration not stated) | > 100 µM | 
CCOC(=O)Nc1nc2ccc(Cn3cccc3)cc2[nH]1 | > 100 µM | 

Test system: LXFL 529 NSCLC
Assay: inhibition of tumour cell growth, NCI panel, 48 h

SMILES | TGI [µM] | GI50 [µM]
c1ccc2c(c1)CCC/C2=N\OCC1CO1 (configuration not stated) | > 100 | 
CC/C(C)=C1\CCC(CN2CCOCC2)C1=O (configuration not stated) | 23.7 | 
COC(=O)C1C(C(=O)OC)C2(OC)c3ccccc3-c3ccccc3C12 (configuration not stated) | > 100 | 
O=C1OC(CC(=O)c2ccc(Cl)c(Cl)c2)C(Cl)=C1Cl (configuration not stated) | > 100 | 
CCN(CC)CC(O)CNc1ccc(NCC2CO2)c2c1C(=O)c1ccccc1C2=O (configuration not stated) | 0.247 | 
CC(=O)c1cccc(N2COC(C)(C)c3nc4ccccc4n3C2)c1 | > 100 | 
O=[N+]([O-])c1cccc(C2N3CCCCC3[C@@H]3c4[nH]c5ccccc5c4CCN23)c1 (some centres not stated) | 60.8 | 
CCOC(=O)NC(=O)c1cn(CC(=O)NCC(=O)NCC(=O)NCCCN2CCN(CCCNC(=O)CNC(=O)CNC(=O)Cn3cc(C(=O)NC(=O)OCC)c(=O)[nH]c3=O)CC2)c(=O)[nH]c1=O | > 100 | 
CCN(CC)CCCC(C)Nc1c2ccc(Cl)cc2nc2ccc(OC)cc12 (configuration not stated) | 2.95 | 
CC[C@@H]1OC2(C)CC(S(=O)(=O)c3ccccc3O)CC1O2 (some centres not stated) | > 100 | 
CCOC(=O)C(N)C[S][Sn]([CH3])([CH3])[Cl] (configuration not stated) | > 100 | 28.7
NNC(=O)/C(=C/c1ccc(Cl)c(Cl)c1)NC(=O)c1ccccc1 | > 100 | 
CC(=O)OCC1OC(N2C(=O)C(=O)c3cc(C)ccc32)C(OC(C)=O)C(OC(C)=O)C1OC(C)=O (configuration not stated) | > 100 | 
COc1cc(Cl)c2c3c(c(C(C)=O)oc13)CCC2 | > 100 | 
CC(=O)Nc1ccc(C(=O)NN2C(=O)C(Cl)C2c2ccc(Cl)cc2)cc1 (configuration not stated) | > 100 | 
CCCCc1c2c(nc3c1CCC/C3=C\c1ccccc1)C(=O)CCC2 | > 100 | 
COc1ccc([N+]2=NC(c3ccc([N+](=O)[O-])cc3)=NN(c3ccccc3)C2)cc1 | > 100 | 
C=CC1(C(=O)O)CCC(C(C)(C)C)CC1 (configuration not stated) | > 100 | 
NC(=O)C(=Cc1ccc(C(O)P(=O)(O)O)cc1)C(N)=O (configuration not stated) | > 100 | 
O=C(Nc1cc(Cl)c(Cl)cc1Cl)C(=O)C1C=CCS1(=O)=O (configuration not stated) | > 100 | 
CCNC(=O)CCN(C(=O)O)S(=O)(=O)c1ccc(NC(=O)c2ccccc2)cc1 | > 100 | 
O=C(/C=C/c1ccc([N+](=O)[O-])o1)N1CCN(Cc2ccccc2)CC1 | 20.2 | 
CC1C[C@@]2(c3ccccc3)C(=O)CCC[C@H]2N1 (some centres not stated) | > 100 | 
O=[N+]([O-])c1cccc(/C=N\NS(=O)(=O)c2ccc(Cl)cc2)c1O | > 100 | 
CC1=C(C(=O)Nc2ccccc2C)C(c2ccc(Cl)c(Cl)c2)C(C(=O)Nc2ccccc2C)=C(C)N1 | 43.4 | 
CCCCOC(=O)NC(=O)c1cn(CCCOC(=O)CCCCCCCCC(=O)OCCCn2cc(C(=O)NC(=O)OCCCC)c(=O)[nH]c2=O)c(=O)[nH]c1=O | > 100 | 
Cc1[nH]c2ccccc2c1C1Cc2ccccc2N1C(=O)/C=C\C(=O)O (configuration not stated) | 41.1 | 
CCOC(=O)Nc1nc2ccc(Cn3cccc3)cc2[nH]1 | > 100 | 
